Experimental data: article PMC5895803, “Inhibition of cancer stem cell like cells by a synthetic retinoid” (Nature Communications, 2018)
≈ marks a conversion by molar mass, not a printed value.

Tests used:
[1] = parameters: method as in doi:10.1016/j.jaad.2003.11.002; settings: cited from earlier work
[2] = system: B16-F1 TRCs; assay: Colony growth of B16-F1 TRCs in 90-Pa 3D soft fibrin gels; assay type: cell-based, murine; settings: for Rescue of TRC growth from inhibitory effects of WYC-209 by pretreatment: pretreated 3 h before 0.1 or 1 μM WYC-209, day 5; for inhibition at 10 µM: B16-F1, 10 μM; for Rescue of TRC growth from inhibitory effects of Tazarotene by pretreatment: pretreated 3 h before 0.1 or 1 μM Tazarotene
[3] = target: mouse RARs; parameters: method as in earlier work; settings: ref 1 (supplement); read-out: published Kd values to mouse RARs; cited from earlier work
[4] = system: B16-F1 TRCs; assay: Cell cycle analysis (BrdU flow cytometry), S phase of TRCs; assay type: cell-based, murine; settings: 10 μM, 24 hours
Method: For Annexin-V and PI staining to quantify cell apoptosis, treated TRCs were isolated from 3D fibrin gel by using 5 mg mL^−1 Dispase II (Sigma), cells were labeled with FITC-conjugated Annexin-V and PI according to the manufacturer’s instruction (Biolegend). Data were acquired on a BD Cantoll (BD biosciences) and analyzed with FlowJo software. For BrdU staining to quantify cell proliferation, cells were labeled with FITC-conjugated anti-BrdU antibody according to the manufacturer’s instruction (FITC BrdU Flow Kit, BD Biosciences) and then data were acquired on an Accuri C6 (BD Biosciences) and analyzed with BD Accuri C6 software.
Supplementary Figure 13. WYC-209 blocks S phase of TRCs. Different cancer cell lines cultured in 3D soft fibrin gel on day 0, then treated with 0.1, 1, or 10 μM WYC-209, WYC-209A, WYC-209B on day 4, isolated cells after 24 hours and labeled with FITC-conjugated anti-BrdU antibody for cell cycle analysis, 10 μM ATRA and Tazarotne as positive controls. (a) Representative images of flow cytometry in different conditions. (b) Quantification of S phase ratio in different conditions. Mean ± s.e.m.; n=3 independent experiments; * P<0.05; ** P<0.01; *** P<0.001 (Student’s t-test).
(1 picture or pasted object on this page, not shown here)

[5] = Water solubility; settings: pH 7.4, aqueous buffer, kinetic from dmso stock
[6] = system: melanoma TRCs; parameters: method as in PMID 25099074; settings: high concentrations (1 and 100 μM); cited from earlier work
[7] = target: T1, CYP 2C19 (Homo sapiens, UniProt P33261); assay: Cytochromes enzyme inhibition assay, human liver microsomes; assay type: in vitro ADME; settings: substrate S-mephenytoin (35 µM)
T1 construct: from tissue; host or cells: human liver microsomes
T1 sequence (P33261 whole entry): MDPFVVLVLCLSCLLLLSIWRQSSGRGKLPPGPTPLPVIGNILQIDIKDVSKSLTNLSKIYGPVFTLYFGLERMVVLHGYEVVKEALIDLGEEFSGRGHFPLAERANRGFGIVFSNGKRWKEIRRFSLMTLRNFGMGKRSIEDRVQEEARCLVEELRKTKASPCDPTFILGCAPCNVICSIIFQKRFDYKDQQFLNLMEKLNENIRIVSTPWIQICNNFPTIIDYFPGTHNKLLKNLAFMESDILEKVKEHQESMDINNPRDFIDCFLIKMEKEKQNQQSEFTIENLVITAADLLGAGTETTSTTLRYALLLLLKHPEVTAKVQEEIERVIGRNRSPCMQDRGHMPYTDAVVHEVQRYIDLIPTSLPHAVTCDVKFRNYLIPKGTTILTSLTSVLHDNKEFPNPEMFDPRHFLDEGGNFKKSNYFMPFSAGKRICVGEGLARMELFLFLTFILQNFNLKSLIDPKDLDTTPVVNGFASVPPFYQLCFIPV

[8] = system: human malignant melanoma A375; assay: Colony growth of A375 TRCs in 90-Pa fibrin gels; assay type: cell-based; settings: pretreated 3 h before 0.1 or 1 μM WYC-209, day 7
Method: Salmon fibrinogen and thrombin were purchased from Reagent Proteins (CA, USA). 3D fibrin gels were prepared as described previously[5],[6]. In brief, fibrinogen was diluted into 2 mg mL^−1 with T7 buffer (pH 7.4, 50 mM Tris, 150 mM NaCl). Cells were detached from 2D rigid dishes and cell density was adjusted to 10^4 cells per mL. Fibrinogen and cell solution mixture were made by mixing the same volume of fibrinogen solution and cell solution, resulting in 1 mg mL^−1 fibrinogen and 5000 cells per mL in the mixture fibrin gels. A volume of 50 μL cell/fibrinogen mixture was seeded into each well of 96-well plate and mixed well with pre-added 1 μL thrombin (100 U mL^−1). The cell culture plate was then incubated in 37 °C cell culture incubator for 10 min. Finally, 200 μL of DMEM medium containing 10% FBS and antibiotics was added.

[9] = Mus musculus, treated on day 0, day 5

Question: Which “Activity after oxidation of the sulfur atom on Tazarotene” value [1] does the source give for `CC1(C)CC[S+]([O-])c2ccc(C#Cc3ccc(C(=O)O)cn3)cc21` (centres unmarked) [AGN 190844] here?
Answer: loses its activity

Question: Which “Rescue of TRC growth from inhibitory effects of WYC-209 by pretreatment” value [2] does the source give for `CCc1ccc(C2=CC(C)(C)Sc3ccc(C#Cc4ccc(C(=O)O)cc4)cc32)cc1` [AGN-194310, reference compound] here?
Answer: rescued the TRC growth

Question: With `CC1=C(/C=C/C(C)=C/C=C/C(C)=C/C(=O)O)C(C)(C)CCC1` [ATRA, all-trans retinoic acid, reference compound] as the compound, how does the Kd [3] read?
Answer: 0.2 to 0.36 nM

Question: And the inhibition at 10 µM [2, 9]?
Answer: 80%

Question: And the “Decrease of S phase of TRCs” value [4]?
Answer: ~55%

Question: For `CC1(C)CC=C(c2cnc3ccccc3c2)c2cc(C(=O)Nc3ccc(C(=O)O)cc3)ccc21` [BMS195614, reference compound], which “Impact of antagonist alone on TRC growth” value [2] is on record?
Answer: no impact on TRC growth

Question: And the “Rescue of TRC growth from inhibitory effects of Tazarotene by pretreatment” value [2]?
Answer: rescuing effect was minimal

Question: And the “Rescue of TRC growth from inhibitory effects of WYC-209 by pretreatment” value [2]?
Answer: rescued the TRC growth

Question: For `COCCOCOc1cc2ccc(-c3ccc(C(=O)O)cc3)cc2cc1C12CC3CC(CC(C3)C1)C2` [CD2665, reference compound], which “Impact of antagonist alone on TRC growth” value [2] is on record?
Answer: no impact on TRC growth

Question: What about the “Rescue of TRC growth from inhibitory effects of Tazarotene by pretreatment” value [2] of the same compound?
Answer: rescuing effect was minimal

Question: And the “Rescue of TRC growth from inhibitory effects of WYC-209 by pretreatment” value [2]?
Answer: rescued the TRC growth

Question: For `CC(=O)N1CCN(c2ccc(OCC3COC(Cn4ccnc4)(c4ccc(Cl)cc4Cl)O3)cc2)CC1` (centres unmarked) [Ketoconazole, reference compound], which solubility at 1 h ([5]; PBS (pH 7.4)) is on record?
Answer: 49.3 µM (≈ 26.2 µg/mL)

Question: For `CC(C)NCC(O)COc1cccc2ccccc12` (centres unmarked) [Propranolol, reference compound], which solubility at 1 h [5] is on record?
Answer: > 100 µM

Question: Which results are given for `CCOC(=O)c1ccc(C#Cc2ccc3c(c2)C(C)(C)CCS3)nc1` [Tazarotene, reference compound]?
Answer: Growth inhibition at 10 μM ([2]; 10 μM, treated on day 0, day 5, 10 µM): 71%; inhibition at 10 µM [2, 9]: 71.2%; IC50 ([2]; Mus musculus, B16-F1 in 90-Pa fibrin gels, treated on day 0, colony size on day 5): 1720 nM; Decrease of S phase of TRCs [4]: ~ 45%

Question: With `N.N.[Cl][Pt][Cl]` [cisplatin] as the compound, how does the TRCs not killed [6] read?
Answer: 20–30%

Question: Which TRCs not killed [6] does the source give for `COc1cccc2c1C(=O)c1c(O)c3c(c(O)c1C2=O)C[C@@](O)(C(=O)CO)C[C@@H]3O[C@H]1C[C@H](N)[C@H](O)[C@H](C)O1` [doxorubicin] here?
Answer: 20–30%

Question: For `COc1ccc2[nH]c([S+]([O-])Cc3ncc(C)c(OC)c3C)nc2c1` (centres unmarked) [omeprazole, reference compound], which IC50 [7] is on record?
Answer: 4.99 µM

Question: For `COC(=O)CC[C@H](NC(=O)[C@H](CC(=O)OC)NC(=O)OCc1ccccc1)C(=O)N[C@H](C(=O)N[C@@H](CC(=O)OC)C(=O)CF)C(C)C` [z-DEVD-FMK, reference compound], which “Rescue of TRC growth from inhibitory effects of Tazarotene by pretreatment” value [2] is on record?
Answer: could not rescue growth

Question: And the “Rescue of TRC growth from inhibitory effects of WYC-209 by pretreatment” value [2]?
Answer: substantially rescued growth

Question: What about the “Rescue of A375 TRC growth from WYC-209 inhibition by pretreatment” value [8] of the same compound?
Answer: substantially rescued growth
